Data published in PMC9736855, “Discovery of 3-Amino-1H-pyrazole-Based Kinase Inhibitors to Illuminate the Understudied PCTAIRE Family” (International Journal of Molecular Sciences, 2022).
pEC50, pKd: −log10 of the molar value.

Key:
JNK3 = target: T1, JNK3 (Homo sapiens, UniProt P53779); parameters: method as in PMID 19053485; settings: cited from earlier work
T1 construct: Recombinant protein kinase domains with a concentration of 2 μM were mixed; made in house

359 wild-type kinases = system: 359 wild-type kinases; parameters: method as in PMID 19053485; settings: kinome-wide screen; cited from earlier work
CDK2 = target: T2, CDK2 (Homo sapiens, UniProt P24941); settings: cited from earlier work
T2 construct: purchased in-house DSF panel (SGC Frankfurt)

CDK5 = settings: cited from earlier work
MAPKAPK2 = target: T3, MAPKAPK2 (Homo sapiens, UniProt P49137); experiment: DSF; assay type: binding
T3 construct: purchased in-house DSF panel (SGC Frankfurt)
Experimental: Recombinant protein kinase domains with a concentration of 2 μM were mixed with a 10 μM compound solution in DMSO, 20 mM HEPES, pH 7.5, and 500 mM NaCl. SYPRO Orange (5000×, Invitrogen) was added as a fluorescence probe (1 µl per mL). Subsequently, temperature-dependent protein unfolding profiles were measured, using the QuantStudio™ 5 realtime PCR machine (Thermo Fisher, Waltham, MA, USA). […] The temperature was raised with a step rate of 3 °C per minute. Data points were analyzed with the internal software (Thermal Shift SoftwareTM Version 1.4, Thermo Fisher) using the Boltzmann equation to determine the inflection point of the transition curve. Differences in melting temperature are given as ΔTm values in °C. Measurements were performed in duplicates.

BRPF1B = target: T4, BRPF1B (Homo sapiens, UniProt P55201); experiment: DSF; assay type: binding
T4 construct: purchased in-house DSF panel (SGC Frankfurt)

PCTAIRE family = experiment: NanoBRET; assay type: cell-based; settings: read-out: cellular potency, other members of the PCTAIRE family
Method in brief: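 Cells (HEK293T) are transfected with full-length kinase–NanoLuc plasmids and allowed 20 h expression. Trypsinized cells are added to inhibitor dilutions plus tracer at KD,app and equilibrated 2 h at 37 °C/5% CO2. Luminescence at 450 and 610 nm gives BRET; EC50 from a normalized fit.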

[1] = Microsomal stability assay; assay type: in vitro ADME, Sprague-Dawley rats; settings: rat liver microsomes, 10 µM, 37 °C, 60 min
Experimental: The lead structure 1 was not included in this assay due to its promiscuous behaviour. Since 1 is presumably not suitable as a tool compound to study the effect of selective kinase inhibition in an in vivo application, we focused on the newly synthesized compounds 21i and 43d. The compounds were tested against an activated microsome mix derived from the liver of Sprague-Dawley rats, as previously reported. 21i and 43d were incubated at 37 °C for 60 min and the amount of unmetabolized compound was determined in 15 min steps, using high-performance liquid chromatography (HPLC).
The solubilized test compound (5 μL, final concentration 10 µM) was preincubated at 37 °C in 432 μL of phosphate buffer (0.1 M, pH 7.4) together with 50 μL NADPH regenerating system (30 mM glucose 6 phosphate, 4 U/mL glucose 6 phosphate dehydrogenase, 10 mM NADP, 30 mM MgCl2). After 5 min, the reaction was started by the addition of 13 μL of microsome mix from the liver of Sprague−Dawley rats (Invitrogen; 20 mg protein/mL in 0.1 M phosphate buffer) in a shaking water bath at 37 °C. The reaction was stopped by adding 500 μL of ice cold methanol at 0, 15, 30 and 60 min. […] The amounts of the test compound were quantified by an external calibration curve. Data are expressed as the mean ± SEM remaining compound from three independent experiments.

TLK1 = target: T5, TLK1 (Homo sapiens, UniProt Q9UKI8); experiment: DSF; assay type: binding
T5 construct: purchased in-house DSF panel (SGC Frankfurt)
Experimental: Recombinant protein kinase domains with a concentration of 2 μM were mixed with a 10 μM compound solution in DMSO, 20 mM HEPES, pH 7.5, and 500 mM NaCl. SYPRO Orange (5000×, Invitrogen) was added as a fluorescence probe (1 µl per mL). Subsequently, temperature-dependent protein unfolding profiles were measured, using the QuantStudio™ 5 realtime PCR machine (Thermo Fisher, Waltham, MA, USA). […] The temperature was raised with a step rate of 3 °C per minute. Data points were analyzed with the internal software (Thermal Shift SoftwareTM Version 1.4, Thermo Fisher) using the Boltzmann equation to determine the inflection point of the transition curve [56]. Differences in melting temperature are given as ΔTm values in °C. Measurements were performed in duplicates.

GSK3B = GSK3B (Homo sapiens, UniProt P49841); experiment: NanoBRET; assay type: cell-based; parameters: Full-length kinases were obtained as plasmids cloned in frame with a terminal NanoLuc-fusion; host or cells: HEK293T
Experimental: The assay was performed as described previously. In brief: Full-length kinases were obtained as plasmids cloned in frame with a terminal NanoLuc-fusion (Promega, Madison, WI, USA), as specified in table (Table S6). Plasmids were transfected into HEK293T cells using FuGENE HD (Promega, E2312) and proteins were allowed to express for 20h. Serially diluted inhibitor and NanoBRET Kinase Tracer (Promega) at a concentration determined previously as the KD,app (Table S5) were pipetted into white 384-well plates (Greiner 781207) using an Echo acoustic dispenser (Labcyte, San Jose, CA, USA). The corresponding protein-transfected cells were added and reseeded at a density of 2.5 × 10^5 cells/mL after trypsinization and resuspending in Opti-MEM without phenol red (Life Technologies, Carlsbad, CA, USA). The system was allowed to equilibrate for 2 h at 37 °C/5% CO2 prior to BRET measurements. To measure BRET, NanoBRET NanoGlo Substrate + Extracellular NanoLuc Inhibitor (Promega, N2540) was added as per the manufacturer’s protocol, and filtered luminescence was measured on a PHERAstar plate reader (BMG Labtech, Ortenberg, Germany) equipped with a luminescence filter pair (450 nm BP filter (donor) and 610 nm LP filter (acceptor)). […]

T5 sequence (Q9UKI8 456-734): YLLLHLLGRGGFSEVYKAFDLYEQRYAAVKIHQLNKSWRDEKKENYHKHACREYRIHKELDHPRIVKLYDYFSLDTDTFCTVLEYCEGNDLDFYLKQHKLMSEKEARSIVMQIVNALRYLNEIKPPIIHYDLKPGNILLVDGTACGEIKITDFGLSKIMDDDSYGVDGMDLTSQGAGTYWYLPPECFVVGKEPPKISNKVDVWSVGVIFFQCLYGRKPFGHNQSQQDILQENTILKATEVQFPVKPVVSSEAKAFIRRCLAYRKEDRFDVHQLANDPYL
T4 sequence (P55201 whole entry): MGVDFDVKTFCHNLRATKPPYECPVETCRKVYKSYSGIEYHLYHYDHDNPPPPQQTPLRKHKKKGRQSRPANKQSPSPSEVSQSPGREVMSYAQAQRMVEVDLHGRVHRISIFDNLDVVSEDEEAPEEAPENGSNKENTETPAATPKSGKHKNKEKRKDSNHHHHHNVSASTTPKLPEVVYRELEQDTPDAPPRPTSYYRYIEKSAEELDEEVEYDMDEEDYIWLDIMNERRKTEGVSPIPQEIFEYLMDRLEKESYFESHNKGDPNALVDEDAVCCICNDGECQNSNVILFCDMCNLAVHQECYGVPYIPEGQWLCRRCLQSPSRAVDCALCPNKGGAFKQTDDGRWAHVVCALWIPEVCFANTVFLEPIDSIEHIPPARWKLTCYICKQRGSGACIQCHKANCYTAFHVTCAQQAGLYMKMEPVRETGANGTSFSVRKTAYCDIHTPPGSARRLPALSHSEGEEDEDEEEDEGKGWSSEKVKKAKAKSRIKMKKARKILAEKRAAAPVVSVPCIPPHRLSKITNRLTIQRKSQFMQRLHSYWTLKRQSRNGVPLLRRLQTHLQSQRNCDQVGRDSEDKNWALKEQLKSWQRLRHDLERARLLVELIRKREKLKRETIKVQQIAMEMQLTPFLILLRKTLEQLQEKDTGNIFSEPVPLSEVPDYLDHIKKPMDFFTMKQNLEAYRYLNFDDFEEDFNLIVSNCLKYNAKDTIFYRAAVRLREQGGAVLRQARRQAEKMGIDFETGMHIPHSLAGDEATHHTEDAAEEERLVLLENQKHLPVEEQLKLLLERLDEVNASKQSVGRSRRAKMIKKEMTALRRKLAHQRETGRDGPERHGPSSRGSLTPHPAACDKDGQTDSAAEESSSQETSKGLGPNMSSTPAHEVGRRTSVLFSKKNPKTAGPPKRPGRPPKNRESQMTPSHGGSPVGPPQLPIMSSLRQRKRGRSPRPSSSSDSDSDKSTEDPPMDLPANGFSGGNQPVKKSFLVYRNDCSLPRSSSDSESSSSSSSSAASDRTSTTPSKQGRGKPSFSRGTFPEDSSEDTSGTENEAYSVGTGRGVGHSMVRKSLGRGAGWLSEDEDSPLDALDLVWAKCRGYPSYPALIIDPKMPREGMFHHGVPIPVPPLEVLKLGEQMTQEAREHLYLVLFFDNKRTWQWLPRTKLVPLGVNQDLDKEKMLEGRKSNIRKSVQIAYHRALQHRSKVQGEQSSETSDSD
T3 sequence (P49137 64-325): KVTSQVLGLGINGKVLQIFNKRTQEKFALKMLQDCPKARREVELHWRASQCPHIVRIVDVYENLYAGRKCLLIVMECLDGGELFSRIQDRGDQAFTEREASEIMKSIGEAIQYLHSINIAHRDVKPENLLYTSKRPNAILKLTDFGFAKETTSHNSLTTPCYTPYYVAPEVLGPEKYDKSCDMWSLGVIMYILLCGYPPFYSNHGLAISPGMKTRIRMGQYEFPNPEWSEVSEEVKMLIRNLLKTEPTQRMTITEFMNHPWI
Sequence of GSK3B (P49841 whole entry, the tested form may be a part): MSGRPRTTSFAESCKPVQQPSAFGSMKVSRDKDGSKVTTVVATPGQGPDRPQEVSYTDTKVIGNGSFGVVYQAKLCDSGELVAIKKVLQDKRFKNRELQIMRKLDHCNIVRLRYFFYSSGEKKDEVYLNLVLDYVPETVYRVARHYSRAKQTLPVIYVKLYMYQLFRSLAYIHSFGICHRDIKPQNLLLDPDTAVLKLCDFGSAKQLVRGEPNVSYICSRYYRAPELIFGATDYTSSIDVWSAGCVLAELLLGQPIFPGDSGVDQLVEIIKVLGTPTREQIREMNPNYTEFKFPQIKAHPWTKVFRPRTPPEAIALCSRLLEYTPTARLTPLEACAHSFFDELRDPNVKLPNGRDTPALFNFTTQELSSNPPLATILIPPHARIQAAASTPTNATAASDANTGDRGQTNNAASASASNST
T1 sequence (P53779 64-359 limits assumed): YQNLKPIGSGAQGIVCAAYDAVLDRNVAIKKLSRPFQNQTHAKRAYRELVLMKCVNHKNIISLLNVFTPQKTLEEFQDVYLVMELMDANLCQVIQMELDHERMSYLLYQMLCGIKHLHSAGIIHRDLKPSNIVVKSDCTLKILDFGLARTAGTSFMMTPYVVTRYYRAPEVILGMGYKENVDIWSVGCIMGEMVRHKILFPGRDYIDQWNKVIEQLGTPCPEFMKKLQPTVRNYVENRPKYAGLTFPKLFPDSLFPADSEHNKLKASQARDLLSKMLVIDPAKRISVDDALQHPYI

Compound | pKd (JNK3) | number of kinases targeted of 359 wild-type kinases (359 wild-type kinases) | pKd (CDK2) | pKd (CDK5) | ΔTm MAPKAPK2 (MAPKAPK2) [°C] | ΔTm BRPF1B (BRPF1B) [°C] | pEC50 (PCTAIRE family) | unmetabolized compound detected [1] [%] | ΔTm TLK1 (TLK1) [°C] | NanoBRET EC50 GSK3B (GSK3B)
N#CCc1ccc(Nc2nccc(Nc3cc(C4CC4)[nH]n3)n2)cc1 [compound 1, reference compound] | 7.58 | 337 | 8.34 | 7.56 | – | – | – | – | – | –
CC(C)(C)OC(=O)Nc1ccc(CNc2nccc(Nc3cc(C(=O)OC(C)(C)C)[nH]n3)n2)cc1 [43d, tert-butyl 3-((2-((4-((tert-butoxycarbonyl)amino)benzyl)amino)pyrimidin-4-yl)amino)-1H-pyrazole-5-carboxylate] | – | – | – | – | 0.2 | -0.9 | 6.92 to 7.70 | 79 | -1.4 | negligible
COC(=O)c1cc(Nc2ccnc(NCc3ccc(NC(=O)OC(C)(C)C)cc3)n2)[nH]n1 [21i, methyl 5-((2-((4-((tert-butoxycarbonyl)amino)benzyl)amino)pyrimidin-4-yl)amino)-1H-pyrazole-3-carboxylate] | – | – | – | – | – | – | – | 16 | – | –
CC(C)OC(=O)c1cc(Nc2ccnc(NCc3ccc(NC(=O)OC(C)(C)C)cc3)n2)n[nH]1 [42d, isopropyl 3-((2-((4-((tert-butoxycarbonyl)amino)benzyl)amino)pyrimidin-4-yl)amino)-1H-pyrazole-5-carboxylate] | – | – | – | – | -0.3 | -1.4 | – | – | -1.2 | –
